From ChEMBL document CHEMBL3352682, “Unusual C,O-Fused Glycosylapigenins from Serjania marginata Leaves” (J Nat Prod, 2015)
Values after ≈ are worked out from the molar mass of the structure shown.

Assays:
[1] = Antioxidant activity assessed as DPPH radical scavenging activity after 30 mins by UV-spectrophotometry; type: physicochemical
[2] = Antioxidant activity assessed as DPPH radical scavenging activity at <= 20 ug/ml after 30 mins by UV-spectrophotometry; type: physicochemical; conditions: 0.5 h

Row | SMILES | IC50 [1] | inhibition (INH) [2]
1 | C[C@@H]1O[C@@H](O[C@H]2C(=O)[C@@H](O)[C@H](C)O[C@@H]2c2c(O)cc3oc(-c4ccc(O)cc4)cc(=O)c3c2O)[C@H](O)[C@H](O)[C@H]1O | Not Active | Not Active
2 | C[C@@H]1O[C@@H](O[C@H]2C(=O)[C@@H](O)[C@H](C)O[C@@H]2c2c(O)cc(O)c3c(=O)cc(-c4ccc(O)cc4)oc23)[C@H](O)[C@H](O)[C@H]1O | Not Active | Not Active
3 | Oc1cc(O)c2c(c1)O[C@@]1(c3ccc(O)c(O)c3)Oc3cc(O)c4c(c3[C@@H]2[C@H]1O)O[C@H](c1ccc(O)c(O)c1)[C@H](O)[C@H]4c1c(O)cc(O)c2c1O[C@H](c1ccc(O)c(O)c1)[C@H](O)C2 [CINNAMTANNIN B1] | 5.3 µg/mL (≈ 6.13 µM) | 
4 | O=C(O)c1cc(O)c(O)c(O)c1 [GALLIC ACID] | 8.42 µg/mL (≈ 49.5 µM) | 
5 | Oc1cc(O)c2c(c1)O[C@@]1(c3ccc(O)c(O)c3)Oc3cc(O)c4c(c3[C@@H]2[C@H]1O)O[C@H](c1ccc(O)c(O)c1)[C@@H](O)C4 [PROANTHOCYANIDIN A1] | 8.55 µg/mL (≈ 14.8 µM) | 
6 | Oc1cc(O)c2c(c1)O[C@@]1(c3ccc(O)c(O)c3)Oc3cc(O)c4c(c3[C@@H]2[C@H]1O)O[C@H](c1ccc(O)c(O)c1)[C@H](O)C4 [PROANTHOCYANIDIN A2] | 9.71 µg/mL (≈ 16.8 µM) | 
